From ChEMBL document CHEMBL5038652, “Structural Rigidification of N-Aryl-pyrroles into Indoles Active against Intracellular and Drug-Resistant Mycobacteria” (ACS Med Chem Lett, 2022)
Values after ≈ are worked out from the molar mass of the structure shown.

How the values were obtained:
[1] = test system: Mycobacterium tuberculosis; assay: Antimycobacterial activity against Mycobacterium tuberculosis H37Rv assessed as reduction in bacterial growth incubated for 7 days by resazurin dye based assay; type: functional; conditions: 168 h, time 7 day
[2] = test system: Mycobacterium tuberculosis; assay: Antimycobacterial activity against Mycobacterium tuberculosis H37Rv clinical isolates 1 assessed as reduction in bacterial growth incubated for 7 days by resazurin dye based assay; type: functional; conditions: 168 h, time 7 day
[3] = test system: Mycobacterium tuberculosis; assay: Antimycobacterial activity against Mycobacterium tuberculosis H37Rv clinical isolates 4 assessed as reduction in bacterial growth incubated for 7 days by resazurin dye based assay; type: functional; conditions: 168 h, time 7 day
[4] = test system: Mycobacterium tuberculosis; assay: Antimycobacterial activity against Mycobacterium tuberculosis H37Rv clinical isolates 2 assessed as reduction in bacterial growth incubated for 7 days by resazurin dye based assay; type: functional; conditions: 168 h, time 7 day
[5] = test system: Mycobacterium tuberculosis; assay: Antimycobacterial activity against Mycobacterium tuberculosis H37Rv clinical isolates 3 assessed as reduction in bacterial growth incubated for 7 days by resazurin dye based assay; type: functional; conditions: 168 h, time 7 day
[6] = test system: Mycobacterium tuberculosis; assay: Antimycobacterial activity against Mycobacterium tuberculosis H37Rv infected in mouse J774.A1 cells assessed as log reduction of bacterial growth at 1X MIC measured after 3 days by visual colony counting analysis; type: functional; conditions: time 3 day
[7] = Cytotoxicity against mouse J774.A1 cells assessed as reduction in cell viability after 24 hrs by resazurin dye based assay; type: toxicity
[8] = Selectivity index, ratio of IC50 for mouse J774.A1 cells to MIC for Mycobacterium tuberculosis H37Rv; type: toxicity; conditions: read-out: Selectivity Index

Row | SMILES | MIC [1] | further results
1 | Clc1ccc2[nH]cc(CNC3CCCCC3)c2c1 | 16.3 µg/mL (≈ 62.1 µM) | 
2 | c1ccc2c(CNC3CCCCCCC3)c[nH]c2c1 | > 25 µg/mL | 
3 | Cn1cc(CNC2CCCCCCC2)c2ccc(Cl)cc21 | 23.2 µg/mL (≈ 76.3 µM) | 
4 | CO[C@H]1/C=C/O[C@@]2(C)Oc3c(C)c(O)c4c(O)c(c(/C=N/N5CCN(C)CC5)c(O)c4c3C2=O)NC(=O)/C(C)=C\C=C\[C@H](C)[C@H](O)[C@@H](C)[C@@H](O)[C@@H](C)[C@H](OC(C)=O)[C@@H]1C [RIFAMPIN] |  | MIC [2]: > 25 µg/mL; MIC [3]: < 0.1 µg/mL; MIC [4]: 0.65 µg/mL (≈ 0.79 µM); MIC [5]: > 25 µg/mL
5 | Clc1ccc2c(CNCC3CCCCC3)c[nH]c2c1 | 24.2 µg/mL (≈ 87.4 µM) | 
6 | Cn1cc(CNCc2ccccc2)c2ccc(Cl)cc21 | > 25 µg/mL | 
7 | Clc1ccc2c(CNCc3ccccc3)cn(C3CCCCCCC3)c2c1 | 19.7 µg/mL (≈ 51.8 µM) | 
8 | Clc1ccc2c(CNC3CCCCCC3)c[nH]c2c1 | 17.1 µg/mL (≈ 61.9 µM) | 
9 | Clc1ccc2c(CNCc3ccccc3)c[nH]c2c1 | 22.8 µg/mL (≈ 84.3 µM) | 
10 | Cc1cc(CNCC2CCCCC2)c(C)n1-c1ccc(Cl)cc1 | 0.3 µg/mL (≈ 0.907 µM) | 
11 | COc1c(N2C[C@@H]3CCCN[C@@H]3C2)c(F)cc2c(=O)c(C(=O)O)cn(C3CC3)c12 [MOXIFLOXACIN] |  | Activity [6]: 0.11 log10CFU
12 | CC(C)n1cc(CNC2CCCCCC2)c2ccc(Cl)cc21 | 16.3 µg/mL (≈ 51.2 µM) | 
13 | Clc1ccc2c(CNC3C4CC5CC(C4)CC3C5)c[nH]c2c1 (stereo not given) | 6.07 µg/mL (≈ 19.3 µM) | IC50 at 24 h [7]: 7.51 µg/mL (≈ 23.9 µM); selectivity ratio [8]: 1.24
14 | Cc1cc(CNC2CCCCC2)c(C)n1-c1ccc(Cl)cc1 | 0.2 µg/mL (≈ 0.631 µM) | 
15 | CC(C)n1cc(CNC2CCCCC2)c2ccc(Cl)cc21 | 23.9 µg/mL (≈ 78.3 µM) | 
16 | Clc1ccc2c(CNC3CCCCC3)c[nH]c2c1 | > 25 µg/mL | 
17 | Cn1cc(CNC2C3CC4CC(C3)CC2C4)c2ccc(Cl)cc21 (stereo not given) | 10.9 µg/mL (≈ 33.2 µM) | IC50 at 24 h [7]: 16.2 µg/mL (≈ 49.2 µM); selectivity ratio [8]: 1.48
18 | NCC[C@H](O)C(=O)N[C@@H]1C[C@H](N)[C@@H](O[C@H]2O[C@H](CN)[C@@H](O)[C@H](O)[C@H]2O)[C@H](O)[C@H]1O[C@H]1O[C@H](CO)[C@@H](O)[C@H](N)[C@H]1O [AMIKACIN] |  | MIC [2]: 0.32 µg/mL (≈ 0.546 µM); MIC [3]: 0.14 µg/mL (≈ 0.239 µM); MIC [4]: 23.1 µg/mL (≈ 39.5 µM); MIC [5]: > 25 µg/mL
19 | Clc1ccc2c(CNC3CCCCCCC3)c[nH]c2c1 | > 25 µg/mL | 
20 | Clc1ccc2c(CNCC3CCCCC3)cn(C3CCCCCCC3)c2c1 | 1.56 µg/mL (≈ 4.03 µM) | 
21 | Cc1ccc2[nH]cc(CNC3CCCCCC3)c2c1 | 24.7 µg/mL (≈ 96.4 µM) | 
22 | c1ccc2c(CNC3CCCCCC3)c[nH]c2c1 | > 25 µg/mL | 
23 | c1ccc2c(CNCC3CCCCC3)c[nH]c2c1 | > 25 µg/mL | 
24 | CC(C)n1cc(CNCC2CCCCC2)c2ccc(Cl)cc21 | 6.09 µg/mL (≈ 19.1 µM) | IC50 at 24 h [7]: 14.6 µg/mL (≈ 45.7 µM); selectivity ratio [8]: 2.39
25 | NNC(=O)c1ccncc1 [ISONIAZID] |  | MIC [2]: > 25 µg/mL; MIC [3]: 0.25 µg/mL (≈ 1.82 µM); MIC [4]: > 25 µg/mL; MIC [5]: > 25 µg/mL
26 | CC(C)n1cc(CNC2CCCCCCC2)c2ccc(Cl)cc21 | 14 µg/mL (≈ 42.1 µM) | 
27 | Cn1cc(CNCC2CCCCC2)c2ccc(Cl)cc21 | 19.1 µg/mL (≈ 65.6 µM) | 
28 | CC(C)=CCC/C=C(\C)Cn1cc(CNC2CCCCCC2)c2ccc(Cl)cc21 | 2.75 µg/mL (≈ 6.66 µM) | 
29 | Cn1cc(CNC2CCCCC2)c2ccc(Cl)cc21 | > 25 µg/mL | 
30 | Cc1ccc2[nH]cc(CNC3CCCCC3)c2c1 | > 25 µg/mL | 
